From patent publication US4263325A, “β-Receptor blocking compounds and treatment of cardiovascular disorders therewith” (priority 1979, dated 1981)

Tests used:
vascular β-receptors = target: T1, vascular β-receptors (Felis catus, UniProt Q9TST5); assay: β-blockade of isoprenaline peripheral (vascular) resistance response, reserpinized anaesthetized cat, autoperfused hind leg; format: in vivo; conditions: iv, i.v. test compound, isoproterenol 0.1 μg/kg i.v., dose reducing response to 50 percent
T1 construct: All compounds were thereby tested in anaeshtetized cats; from tissue; host or cells: hind-leg vasculature of the living, reserpinized, anaesthetized cat (autoperfused)
T1 sequence (Q9TST5 whole entry, the tested form may be a part): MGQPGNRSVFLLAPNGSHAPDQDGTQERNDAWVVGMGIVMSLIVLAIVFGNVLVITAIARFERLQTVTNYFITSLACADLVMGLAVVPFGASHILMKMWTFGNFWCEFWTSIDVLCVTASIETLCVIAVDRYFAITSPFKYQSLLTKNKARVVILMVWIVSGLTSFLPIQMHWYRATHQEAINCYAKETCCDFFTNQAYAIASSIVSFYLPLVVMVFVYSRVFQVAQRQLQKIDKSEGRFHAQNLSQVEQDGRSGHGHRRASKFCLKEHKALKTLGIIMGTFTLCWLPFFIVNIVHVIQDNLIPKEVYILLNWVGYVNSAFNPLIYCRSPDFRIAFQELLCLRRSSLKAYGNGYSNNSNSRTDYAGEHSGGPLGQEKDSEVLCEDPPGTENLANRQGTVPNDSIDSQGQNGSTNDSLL
Procedure: (§1) The agents of the present invention were tested as regards their biological properties. All compounds were thereby tested in anaeshtetized cats (males and females weighing 2.5-3.5 kg) pretreated with reserpine (5 mg/kg body-weight administered intramusculary) about 16 hours before the experiments. The animals were pretreated with reserpine in order to eliminate the endogenous sympathetic control of heart rate and vascular smooth muscle tone. The cats were anaesthetized with pentobarbital (30 mg/kg bodyweight administered i.p. ) and artificially ventilated with room air. A bilateral vagotomy was performed in the neck. Blood pressure was obtained from a cannulated carotid artery and heart rate was registered from a cardiotachometer, triggered by the electrocardiogram (ECG). Vascular resistance in one hind leg was recorded by an autoperfusion technique. Intrinsic beta mimetic activity on the heart was seen as increased heart rate after drug administration. The test compounds were given intravenously in logarithmically increasing doses. Before the first dose and between each of the following doses (0.012-51.2 μmol/kg) of the test compound a dose of isoproterenol (0.1 μg/kg) was injected intravenously. Blockade of the heart rate and vascular resistance response to isoproterenol was calculated for each dose and expressed as percent decrease of the response obtained when isoproterenol was injected before any dose of the test compound. Percent blockade was then plotted against the logarithm of the dose. ED50 values i.e. doses producing a reduction of the original response to isoproterenol to 50 percent were estimated from these dose-response curves. At the end of each experiment high doses of isoprenaline were given in order to obtain the maximal heart rate response.

α-receptors = target: T2, α-receptors (Rattus norvegicus, UniProt P43140); assay: α-receptor blocking activity in isolated rat vas deferens (inhibition of noradrenaline contraction); conditions: noradrenaline as agonist, high pA2 = high α-receptor blocking activity
T2 construct: from tissue; host or cells: isolated rat vas deferens
T2 sequence (P43140 1-466): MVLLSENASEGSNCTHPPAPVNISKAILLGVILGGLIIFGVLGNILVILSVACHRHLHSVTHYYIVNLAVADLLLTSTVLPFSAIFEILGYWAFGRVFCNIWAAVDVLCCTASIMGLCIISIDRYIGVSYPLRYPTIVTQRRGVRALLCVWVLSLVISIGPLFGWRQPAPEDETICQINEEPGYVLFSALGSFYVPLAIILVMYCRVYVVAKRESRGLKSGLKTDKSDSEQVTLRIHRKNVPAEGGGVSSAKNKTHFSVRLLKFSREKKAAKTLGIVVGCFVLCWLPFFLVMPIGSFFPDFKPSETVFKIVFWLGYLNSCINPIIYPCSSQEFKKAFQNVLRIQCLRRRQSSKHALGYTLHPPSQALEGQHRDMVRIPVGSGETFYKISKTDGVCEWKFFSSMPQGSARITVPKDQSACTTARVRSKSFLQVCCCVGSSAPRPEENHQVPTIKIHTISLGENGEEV
Procedure: α-receptor blocking activity was tested in isolated rat vas deferens. Noradrenaline administered to the organ bath induces a contraction in vas deferens by activating α-receptors. The ability of the test compounds to inhibit this noradrenaline response was studied. The α-receptor blocking activity was expressed as pA2 values. pA2 is defined as the negative logarithm of the concentration of an antagonist (in our case the test compounds) which leads to the fact that the dose of the agonist (in our case noradrenaline) has to be doubled in order to obtain the same effect of the agonist as that obtained without the antagonist present. Thus a high pA2 value indicates a high α-receptor blocking activity of a compound.

cardiac β-receptors [1] = target: T3, cardiac β-receptors (Felis catus, UniProt Q9TST6); assay: Intrinsic beta mimetic activity on the heart (increase of heart rate), reserpinized anaesthetized cat; format: in vivo; conditions: i.v.; for Intrinsic activity Δbeats/min: increase of heart rate after drug; for Intrinsic activity % of isoprenaline: maximal heart rate response obtained with high doses of isoprenaline
T3 construct: All compounds were thereby tested in anaeshtetized cats; from tissue; host or cells: heart of the living, reserpinized, anaesthetized cat
T3 sequence (Q9TST6 whole entry): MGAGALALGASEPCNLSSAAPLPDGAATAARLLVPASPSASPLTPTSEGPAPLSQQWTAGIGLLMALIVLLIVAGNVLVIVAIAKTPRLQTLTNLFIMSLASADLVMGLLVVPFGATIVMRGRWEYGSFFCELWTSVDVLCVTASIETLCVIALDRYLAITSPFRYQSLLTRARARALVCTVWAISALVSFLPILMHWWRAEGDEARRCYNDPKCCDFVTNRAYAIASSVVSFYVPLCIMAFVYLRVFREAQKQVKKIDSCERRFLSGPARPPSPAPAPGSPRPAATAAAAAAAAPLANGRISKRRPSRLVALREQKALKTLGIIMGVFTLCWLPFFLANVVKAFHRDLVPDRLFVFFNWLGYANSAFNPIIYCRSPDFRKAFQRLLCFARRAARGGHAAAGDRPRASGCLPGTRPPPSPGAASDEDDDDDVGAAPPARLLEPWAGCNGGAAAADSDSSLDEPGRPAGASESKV
Procedure: as §1

cardiac β-receptors [2] = target: T3, cardiac β-receptors; assay: β-blockade of isoprenaline heart rate response, reserpinized anaesthetized cat; format: in vivo; conditions: iv, i.v. test compound, isoproterenol 0.1 μg/kg i.v., dose reducing response to 50 percent
Procedure: as §1

ED50 (vascular β-receptors) [µmol/kg] | Kb (α-receptors) [nM] | SMILES | Intrinsic activity Δbeats/min (cardiac β-receptors [1]) [beats/min] | Intrinsic activity % of isoprenaline (cardiac β-receptors [1]) | ED50 (cardiac β-receptors [2]) [µmol/kg]
5.8 | 1000 | COc1ccc(OCCNCC(O)COc2ccccc2C)cc1OC (centres unmarked) [CH3; 3,4-diOCH3, 3-[2-(3,4-dimethoxyphenoxy)-ethylamino]-1-o-methylphenoxy-propanol-2] | 8 | 11 % of isoprenaline | 1.5
17 | 1000 | Cc1ccccc1OCC(O)CNCCOc1ccccc1O (centres unmarked) [CH3; 2-OH, 3-[2-(2-hydroxyphenoxy)-ethylamino]-1-o-methylphenoxy-propanol-2] | 30 | 29 % of isoprenaline | 0.6
0.05 | 501 | OCc1ccccc1OCC(O)CNCCOc1ccc(O)cc1 (centres unmarked) [HOCH2; pOH, 3-[2-(4-hydroxyphenoxy)-ethylamino]-1-o-hydroxymethylphenoxy-propanol-2] | 17 | – | 0.02
8.2 | 1580 | COc1ccc(OCCNCC(O)COc2ccccc2C)cc1 (centres unmarked) [CH3; 4-OCH3, 3-[2-(4-methoxyphenoxy)-ethylamino]-1-o-methylphenoxy-propanol-2] | 17 | 22 % of isoprenaline | 0.5
11 | 100 | COc1ccccc1OCCNCC(O)COc1ccccc1C (centres unmarked) [CH3; 2-OCH3, 3-[2-(2methoxyphenoxy)-ethylamino]-1-o-methylphenoxy-propanol-2] | 8 | 8 % of isoprenaline | 4.5
0.02 | 126 | CCCc1ccccc1OCC(O)CNCCOc1ccc(O)cc1 (centres unmarked) [C3H7; pOH, 3-[2-(4-hydroxyphenoxy)-ethylamino]-1-o-propylphenoxy-propanol-2] | 0 | 0 % of isoprenaline | 0.02
